From US20170015555A1, “LONG-TERM PRESERVATION AND NOVEL APPLICATION OF CHLOROUS ACID AQUEOUS SOLUTION FORMULATION” (priority 2013, published 2017)

Tests used:
[1] = tested on: E. coli: Escherichia coli IF03927; assay: Sterilizing effect on floor surface after wiping off imitation vomit, carpet; type: cell-based; conditions: 1000 ppm available chlorine
Source text: (§1) 1) Chlorous acid aqueous solution formulation (see Example 1: Table 11) Treatment sheet (material: 100% cotton): (about 27×40 cm) *Impregnated at a ratio of weight of treatment sheet (g): amount of liquid (ml)=1:3 2) Imitation vomit Miso solution: adjusted to pH of 2 with hydrochloric acid 3) Test Microbes that were Used E. coli: Escherichia coli IF03927 Staphylococcus aureus: Staphylococcus aureus IF0 12732 Thermoduric Microbes (Bacillus cereus): Bacillus cereus NBRC15305 Microbes of the genus Salmonella: Salmonella Enteritidis IF03313 Enterohemorrhagic Escherichia coli O157: Escherichia coli O157 Enterohemorrhagic Escherichia coli O111: Escherichia coli O111 Enterohemorrhagic Escherichia coli O26: Escherichia coli O26
(1) Imitation vomit was spread in an area about the size of an A4 sheet. (2) 5 dry sheets were laid thereon. (3) An agent solution was poured on the dry sheets to wipe off the imitation vomit. (4) A cotton swab was soaked with sterile saline. A portion where imitation vomit was spread was scrubbed with the cotton swab to collect microbes remaining on the floor. After suspending in saline, the solution was spread on a petri dish and cultured. The number of each of the microbes was measured. (5) Test operations 3 and 4 were repeated a total of 7 times (repeated until the imitation vomit could be removed completely).

[2] = tested on: Thermoduric Microbes (Bacillus cereus): Bacillus cereus NBRC15305; assay: Permeability of pathogenic microbes when treatment sheets were laid on vomit; type: cell-based; design: unit not given here; conditions: 1000 ppm available chlorine
Source text: 1) Chlorous acid aqueous solution formulation (see Example 1: Table 11) Treatment sheet (material: 100% cotton): (about 27×40 cm) *Impregnated at a ratio of weight of treatment sheet (g): amount of liquid (ml)=1:3 2) Imitation vomit (hereinafter, referred to as vomit) Miso solution: adjusted to pH 2 with hydrochloric acid 3) Test Microbes that were used E. coli: Escherichia coli IF03927 Staphylococcus aureus: Staphylococcus aureus IF0 12732 Thermoduric Microbes (Bacillus cereus): Bacillus cereus NBRC15305 Microbes of the genus Salmonella: Salmonella Enteritidis IF03313 Enterohemorrhagic Escherichia coli 0157: Escherichia coli 0157 Enterohemorrhagic Escherichia coli 0111: Escherichia coli 0111 Enterohemorrhagic Escherichia coli 026: Escherichia coli O26
Permeability of pathogenic microbes into a treatment sheet when treating vomit was examined to compare effects of preventing secondary contamination. (1) Imitation vomit is spread in an area about the size of an A4 sheet. (2) 30 agent solution-containing treatment sheets were laid thereon and left standing for 10 minutes. (3) Treatment sheets were removed one at a time from the top. After diluting with saline, the sample was spread in a petri dish and cultured.

[3] = Deodorizing effect (chemical deodorization, gas detector tube); conditions: 400 ppm, spray 20 cc
Source text: In order to evaluate tests on deodorizing effects, the present Example examined deodorizing effects by using standards regarding air freshening and deodorization ([II]-2 Method of Testing Deodorizing Efficacy (Chemical Deodorization)) set forth by the Air Fresheners and Deodorizers Conference (http://www.houkou.gr.jp/) as the efficacy testing method, which is adopted by Japan Food Research Laboratories.
Ammonium odor: Ammonium Standard Solution II (Wako Pure Chemical Industries, for testing malodorous substances) Amine odor: methyl mercaptan standard solution (Wako Pure Chemical Industries, for testing malodorous substances) Sulfur odor: hydrogen sulfide (self-made, used hydrogen sulfide that was generated by adding sulfuric acid to zinc sulfide)
Gas detector tube made by GASTEC Corporation Ammonium odor: Detector tube ammonium 3 L made by GASTEC Corporation Amino odor: Detector tube methyl mercaptan 71 made by GASTEC Corporation Sulfur odor: Detector tube hydrogen sulfide 4 LL made by GASTEC Corporation
Tests were conducted in compliance with ([II]-2 Method of Testing Deodorizing Efficacy (Chemical Deodorization)) set forth by the Air Fresheners and Deodorizers Conference.
The tests were carried out by static culture method, using a commercially-available airbag with a spigot having a volume of about 10 L as test containers. The volume of airbags was appropriately changed in accordance with the size of the product.
The bags were filled with odorless air. Malodor concentrations were measured over time at room temperature (about 20° C.). (3 points or higher, detection tube method (FIG. 16), measured by an instrument analysis method or olfactory measurement method. When decrease in the blank was observed, the decrease was suitably corrected. When measuring by olfactory measuring method, the airbag spigot was opened for direct sniffing, or gas was transferred to an odor bag while wearing a mask to perform olfactory measurement in an autonomic respiration form. Measured air was not returned to the source).
For ammonium odor, the residual concentrations were detected and recorded for control (no specimen), 20 ml (cc) of distilled water, sodium hypochlorite (expressed as Na hypochlorite, 400 ppm), and chlorous acid aqueous solution (expressed as CAAS, 400 ppm) prior to spraying and 0 hour, 3 hours, 6 hours, 9 hours, and 24 hours after spraying.
It is known that an odorous substance adsorbs to an airbag and naturally decreases when the odorous substance is in the airbag. In this regard, the amount of loss due to such a natural decrease was measured to normalize the observed values in a control segment.
For the values, the values of the raw data were recorded. The concentration prior to spraying was adjusted and the controls were normalized to be 100. The results are shown in the following Table (In the Table, Cont indicates controls and h indicates time).

[4] = tested on: pathogenic microbes; assay: Sterilizing effect on floor surface when treating vomit, summary over all tested microbes and floors; type: cell-based
Source text: as §1
(1) Imitation vomit was spread in an area about the size of an A4 sheet. (2) 5 agent solution-containing treatment sheets were laid thereon. (3) The imitation vomit was wiped off. (4) A cotton swab was soaked with sterile saline. A portion where imitation vomit was spread was scrubbed with the cotton swab to collect microbes remaining on the floor. After suspending in saline, the solution was spread on a petri dish and cultured. The number of each of the microbes was measured. […]
(1) Imitation vomit was spread in an area about the size of an A4 sheet. […] The number of each of the microbes was measured. […]

## OCl [Sodium Hypochlorite, sodium hypochlorite]
[1]; stored at 25° C. Day 0
  Number of Times Wiped 1 Time (remaining microbes): <10
  Number of Times Wiped 2 Times (remaining microbes): <10
  Number of Times Wiped 3 Times (remaining microbes): <10
[1]; stored at 25° C. Day 7
  Number of Times Wiped 1 Time (remaining microbes): <10
  Number of Times Wiped 2 Times (remaining microbes): <10
  Number of Times Wiped 3 Times (remaining microbes): <10
[2]; 1 sheet, Day 0 at 25° C.
  microbes in treatment sheet laid on imitation vomit: <10
[2]; 1 sheet, Day 7 at 25° C.
  microbes in treatment sheet laid on imitation vomit: >10^6
[2]; 2 sheets, Day 0 at 25° C.
  microbes in treatment sheet laid on imitation vomit: <10
[2]; 2 sheets, Day 7 at 25° C.
  microbes in treatment sheet laid on imitation vomit: >10^6
[2]; 3 sheets, Day 0 at 25° C.
  microbes in treatment sheet laid on imitation vomit: <10
[2]; 3 sheets, Day 7 at 25° C.
  microbes in treatment sheet laid on imitation vomit: >10^6
[2]; 4 sheets, Day 0 at 25° C.
  microbes in treatment sheet laid on imitation vomit: <10
[2]; 4 sheets, Day 7 at 25° C.
  microbes in treatment sheet laid on imitation vomit: >10^6
[2]; 5 sheets, Day 0 at 25° C.
  microbes in treatment sheet laid on imitation vomit: <10
[2]; 5 sheets, Day 7 at 25° C.
  microbes in treatment sheet laid on imitation vomit: >10^6
[2]; 6 sheets, Day 0 at 25° C.
  microbes in treatment sheet laid on imitation vomit: <10
[2]; 6 sheets, Day 7 at 25° C.
  microbes in treatment sheet laid on imitation vomit: >10^6
[2]; 8 sheets, Day 0 at 25° C.
  microbes in treatment sheet laid on imitation vomit: <10
[2]; 8 sheets, Day 7 at 25° C.
  microbes in treatment sheet laid on imitation vomit: 1.1 × 10^4
[2]; 10 sheets, Day 0 at 25° C.
  microbes in treatment sheet laid on imitation vomit: <10
[2]; 10 sheets, Day 7 at 25° C.
  microbes in treatment sheet laid on imitation vomit: 7.1 × 10^2
[2]; 20 sheets, Day 0 at 25° C.
  microbes in treatment sheet laid on imitation vomit: <10
[2]; 20 sheets, Day 7 at 25° C.
  microbes in treatment sheet laid on imitation vomit: <10
[2]; 30 sheets, Day 0 at 25° C.
  microbes in treatment sheet laid on imitation vomit: <10
[2]; 30 sheets, Day 7 at 25° C.
  microbes in treatment sheet laid on imitation vomit: <10
[3]; 0 h after spraying
  residual concentration of ammonium, after correction (Control = 100): 9
  residual concentration of ammonium, before correction: 30 ppm
[3]; 3 h after spraying
  residual concentration of ammonium, after correction (Control = 100): 17
  residual concentration of ammonium, before correction: 50 ppm
[3]; 6 h after spraying
  residual concentration of ammonium, after correction (Control = 100): 21
  residual concentration of ammonium, before correction: 50 ppm
[3]; 9 h after spraying
  residual concentration of ammonium, after correction (Control = 100): 23
  residual concentration of ammonium, before correction: 40 ppm
[3]; 24 h after spraying
  residual concentration of ammonium, after correction (Control = 100): 28
  residual concentration of ammonium, before correction: 40 ppm
[3]; before spraying
  residual concentration of ammonium, after correction (Control = 100): 100
  residual concentration of ammonium, before correction: 320 ppm
[4]; day 0
  sterilization of pathogenic microbes on floor surface by wiping: could be sterilized
[4]; preserved for 7 days
  sterilization of pathogenic microbes on floor surface by wiping: there were cases in which pathogenic microbes could not be sterilized
